Entries after “also recorded” stand apart in the source; their conditions may differ.
How the values were obtained:
[1] = tested on: HFD-fed obese C57Bl/6J mice; assay: Withaferin A daily i.p. to HFD-fed obese mice for three weeks: body weight, food intake, fasting blood glucose; format: in vivo, mouse
Method: To investigate whether Withaferin A can act as an anti-obesity drug by increasing leptin sensitivity and reducing appetite, C57Bl/6J mice were placed on a high fat diet (HFD; Research Diets, D12451, 45 kcal % fat) feeding for 16 weeks. After establishment of obesity and leptin resistance, mice were administered Withaferin A (at 2 mg/kg, in 25 μl DMSO, once per day) and vehicle (DMSO, 25 n1) with intraperitoneal (i.p.) injection. The animals had free access to food and water unless otherwise stated. In all experiments, three days prior to drug administration, the animals went through an acclimation period where they were given DMSO (25 n1) to reduce the effect of stress created by i.p. injection.
Following three days acclimation, mice were administered Withaferin A daily i.p. injections at 2 mg/kg for three weeks in 25 μl of DMSO as vehicle, whereas the control group received the same volume of DMSO. […] At day 21 of the experiment, the 6-hour fasting blood glucose of mice was measured.

[2] = tested on: 10-week old lean mice on chow diet; assay: Withaferin A i.p. to lean mice on chow diet for three weeks; format: in vivo, mouse; details: 2 mg/kg i.p.
Method: Withaferin A was administered to 10-week old lean mice on chow diet at 2 mg/kg for three weeks by i.p. injections.

[3] = tested on: leptin receptor deficient (db/db) mice; assay: Withaferin A to leptin receptor deficient (db/db) mouse model of obesity; format: in vivo; details: 2 mg/kg once a day
Method: To explore whether Withaferin A's effect is leptin dependent, Withaferin A (2 mg/kg, once a day, in 2Sμ1 DMSO) was administered to leptin receptor deficient (db/db) mouse model of obesity.

[4] = tested on: HFD-fed obese mice; assay: Leptin sensitivity: overnight food intake after acute Withaferin A and leptin injection, HFD-fed obese mice; format: in vivo, mouse
Method: (§1) Therefore is it possible that Withaferin A exerts the anti-obesity effects through increasing the leptin sensitivity in the brains of the HFD-fed obese mice. To test this hypothesis, leptin was administered to Withaferin A or vehicle treated HFD-fed obese animals. To avoid any possible leptin sensitizing effect of weight loss or decreased food intake created by Withaferin A administration, leptin injections were carried out upon acute Withaferin A treatment. Lean and HFD-fed obese mice were divided into four groups: 1) DMSO+saline, 2) DMSO+leptin, 3) Withaferin A+saline, and 4) Withaferin A+leptin (n=6 per group). The mice were injected (i.p.) with 1.5 mg/kg Withaferin A or vehicle (DMSO) one hour before dark cycle (day zero). 24 hours later, the second and final injection of DMSO or Withaferin A was administered. 30 minutes prior to dark cycle, mice received a single i.p. injection of leptin (1 mg/kg for HFD mice, dissolved in saline; 5 mg/kg for lean mice), or saline. Over night food intakes were recorded (HFD, FIG. 4A; Chow FIG. 4B). […] In addition, HFD-fed obese mice were resistant to the food intake reducing effect of leptin unless they received Withaferin A (FIG. 4A).

[5] = tested on: lean mice; assay: Leptin sensitivity: overnight food intake after acute Withaferin A and leptin injection, lean mice; format: in vivo, mouse
Method: as §1

[6] = tested on: HFD-fed mice; assay: Body composition by Dual-Emission X-ray Absorptiometry (DEXA); format: in vivo, mouse; details: i.p. 2 mg/kg, two weeks
Method: To analyze the change in body composition during Withaferin A treatment (i.p. 2 mg/kg), lean mass and fat mass of mice with Dual-Emission X-ray Absorptiometry (DEXA) were measured.

[7] = tested on: HFD-fed obese mice; assay: Glucose Tolerance Test (GTT); format: in vivo, mouse; details: 2 mg/kg i.p., one week, D-glucose 1 g/kg i.p., vs vehicle
Method: (§2) In order to analyze the effect of Withaferin A on glucose homeostasis, we performed Glucose Tolerance Test (GTT) and Insulin Tolerance Test (ITT) after chronic i.p. Withaferin A treatment (2 mg/kg). For GTT, mice were fasted overnight following one week of Withaferin A treatment and received an i.p. injection of D-glucose (1 g/kg) in the morning. For ITT, after 16 days of Withaferin A treatment, mice were fasted for 6 hours (from 8 a.m. to 2 p.m.) and recombinant human insulin (1 IU/kg from Eli Lilly) was injected intraperitoneally. In both procedures, blood glucose was measured from tail vein blood at 0, 15, 30, 60, 90 and 120 minutes after injection.

[8] = tested on: HFD-fed obese mice; assay: Insulin Tolerance Test (ITT); format: in vivo, mouse; details: 2 mg/kg i.p., day 16, insulin 1 IU/kg i.p.
Method: as §2

[9] = weight loss product rating; cited from earlier work

In the case of CC1=C(CO)C(=O)O[C@@H]([C@@H](C)[C@H]2CC[C@H]3[C@@H]4C[C@H]5O[C@]56[C@@H](O)C=CC(=O)[C@]6(C)[C@H]4CC[C@]23C)C1 [Withaferin A], the “6-hour fasting blood glucose” value ([1]; 2 mg/kg i.p. daily, day 21, 2 mg/kg) was “decreases blood glucose; also recorded: robust decrease”, the food intake ([1]; 2 mg/kg i.p. daily, three days average within first week) was “significantly decreased” and the body weight ([1]; 2 mg/kg i.p. once per day, three weeks, vs DMSO vehicle) was “significantly decreased”. For the same compound, the blood glucose levels ([2]; after 3 weeks of treatment) was “not altered”, the body weight ([2]; three weeks) was “failed to induce bodyweight loss” and the food intake ([2]; three weeks) was “failed to induce bodyweight loss or suppress food intake”. The body weight [3] was “continued to increase similar to the vehicle treated group”, the food intake [3] was “did not show a decrease” and the blood glucose levels ([3]; end of 3-week treatment) was “tendency to decrease but did not reach statistically significant levels”. For the same compound, the “anorectic action of leptin” value ([4]; HFD mice, Withaferin A 1.5 mg/kg i.p. before leptin 1 mg/kg) was “significantly potentiated”, the “decrease in food intake upon leptin injection” value ([4]; HFD-fed obese mice, Withaferin A 1.5 mg/kg i.p. + leptin 1 mg/kg i.p., compared to vehicle treated non-leptin group) was 75% and the overnight food intake ([4]; HFD-fed obese mice, Withaferin A 1.5 mg/kg i.p. alone, no exogenous leptin) was “decreased the food intake”. The “decrease in food intake upon leptin injection” value ([5]; lean mice, Withaferin A 1.5 mg/kg i.p. + leptin 5 mg/kg i.p., compared to vehicle treated non-leptin group) was “approximately 50%”, the “anorectic action of leptin” value ([5]; lean mice, Withaferin A 1.5 mg/kg i.p. before leptin 5 mg/kg) was “significantly potentiated” and the overnight food intake ([5]; lean mice, Withaferin A 1.5 mg/kg i.p. two injections, without leptin) was “did not change”. For the same compound, the fat percentage [6] was “decreased significantly”, the lean mass [6] was “did not change” and the “glucose homeostasis (AUC of GTT)” value [7] was “significantly improved”. For the same compound, the “insulin sensitivity (ITT)” value [8] was “improved insulin sensitivity”.
In the case of “leptin: peptide hormone, afferent signal in a negative feedback loop regulating food intake and body weight”, the “food intake reducing effect of leptin” value ([4]; HFD-fed obese mice without Withaferin A, leptin 1 mg/kg single i.p. injection) was “resistant” and the overnight food intake ([5]; vehicle treated lean mice, leptin 5 mg/kg single i.p. injection) was “suppressed food intake”.
In the case of Conjugated linoleic acid, the Effectiveness [9] is given as “Possibly” and the Safety [9] is given as “Possibly safe”.
For [Cr] [Chromium], the Safety [9] is given as “Likely safe”.
